Measured values from ChEMBL document CHEMBL5321293, “Discovery of ERD-3111 as a Potent and Orally Efficacious Estrogen Receptor PROTAC Degrader with Strong Antitumor Activity” (J Med Chem, 2023).

Columns and labels:
[1] = biological target: T1, Protein cereblon/Estrogen receptor (Homo sapiens, UniProt P03372+Q96SW2); assay: Protac activity at human ERalpha in human MCF7 cells assessed as protein degradation incubated for 12 hrs by ICW blot assay; assay type: cell-based
Target sequence in this assay (P03372 whole entry): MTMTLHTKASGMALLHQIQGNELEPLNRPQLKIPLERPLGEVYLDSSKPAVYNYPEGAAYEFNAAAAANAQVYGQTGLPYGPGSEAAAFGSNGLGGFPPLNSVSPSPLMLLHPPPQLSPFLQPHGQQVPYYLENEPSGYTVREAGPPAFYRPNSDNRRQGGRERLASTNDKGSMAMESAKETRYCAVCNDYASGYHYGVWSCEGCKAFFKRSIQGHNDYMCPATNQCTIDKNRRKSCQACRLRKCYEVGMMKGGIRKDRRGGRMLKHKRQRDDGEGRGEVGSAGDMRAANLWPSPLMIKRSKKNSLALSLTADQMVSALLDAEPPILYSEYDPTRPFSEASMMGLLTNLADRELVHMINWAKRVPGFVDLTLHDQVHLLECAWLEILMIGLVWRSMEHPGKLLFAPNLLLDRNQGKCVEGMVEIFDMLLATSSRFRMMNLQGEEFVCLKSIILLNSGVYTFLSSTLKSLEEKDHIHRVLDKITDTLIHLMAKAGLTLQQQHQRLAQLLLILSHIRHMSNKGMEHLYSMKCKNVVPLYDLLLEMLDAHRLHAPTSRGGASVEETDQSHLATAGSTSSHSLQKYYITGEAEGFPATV
Target sequence in this assay (Q96SW2 whole entry): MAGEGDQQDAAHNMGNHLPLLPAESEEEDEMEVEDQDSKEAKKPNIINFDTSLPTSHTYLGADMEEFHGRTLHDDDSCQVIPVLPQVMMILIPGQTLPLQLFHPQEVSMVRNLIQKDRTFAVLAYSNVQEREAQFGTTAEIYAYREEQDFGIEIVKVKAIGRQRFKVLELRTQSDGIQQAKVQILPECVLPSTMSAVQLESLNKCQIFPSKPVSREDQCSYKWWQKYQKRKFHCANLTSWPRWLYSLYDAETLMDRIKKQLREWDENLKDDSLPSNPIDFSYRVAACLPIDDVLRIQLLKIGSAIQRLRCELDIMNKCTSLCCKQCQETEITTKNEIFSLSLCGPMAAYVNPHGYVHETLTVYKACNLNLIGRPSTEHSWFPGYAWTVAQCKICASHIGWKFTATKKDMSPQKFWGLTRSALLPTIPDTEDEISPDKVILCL

[2] = biological target: T1, Protein cereblon/Estrogen receptor; assay: Protac activity at human ERalpha in human MCF7 cells assessed as induction of ERalpha degradation by measuring maximum efficacy at 1 uM incubated for 12 hrs by ICW blot assay relative to control; assay type: cell-based
Target sequence in this assay (P03372 whole entry, looked up): as the sequence (P03372 whole entry) above
Target sequence in this assay (Q96SW2 whole entry, looked up): as the sequence (Q96SW2 whole entry) above

[3] = Volume of distribution at steady state in Sprague-Dawley rat at 1 mg/kg, iv and measured upto 24 hrs by LC-MS/MS analysis; conditions: in vivo
[4] = Clearance in Sprague-Dawley rat at 1 mg/kg, iv and measured upto 24 hrs by LC-MS/MS analysis; conditions: in vivo
[5] = Half life in Sprague-Dawley rat at 3 mg/kg, po and measured upto 24 hrs by LC-MS/MS analysis; conditions: in vivo
[6] = AUC in Sprague-Dawley rat at 3 mg/kg, po and measured upto 24 hrs by LC-MS/MS analysis; assay type: ADME, organism-based; parameters: dose 3 mg/kg, time < 24 hrs, route po; conditions: Sprague-Dawley, in vivo
in vivo [7] = conditions: Sprague-Dawley, rat, po, 3 mg/kg
in vivo [8] = conditions: Sprague-Dawley, rat, po, 3 mg/kg; remark: listed apart in the source
[9] = Volume of distribution at steady state in ICR mouse at 1 mg/kg, iv and measured upto 24 hrs by LC-MS/MS analysis; assay type: ADME, organism-based; conditions: in vivo, read-out: Vdss
[10] = Clearance in ICR mouse at 1 mg/kg, iv and measured upto 24 hrs by LC-MS/MS analysis; assay type: ADME, organism-based; conditions: in vivo
[11] = Half life in ICR mouse at 3 mg/kg, po and measured upto 24 hrs by LC-MS/MS analysis; assay type: ADME, organism-based; conditions: in vivo
[12] = Cmax in ICR mouse at 3 mg/kg, po and measured upto 24 hrs by LC-MS/MS analysis; assay type: ADME, organism-based; parameters: dose 3 mg/kg, time < 24 hrs, route po; conditions: in vivo
[13] = AUC in ICR mouse at 3 mg/kg, po and measured upto 24 hrs by LC-MS/MS analysis; assay type: ADME, organism-based; parameters: dose 3 mg/kg, time < 24 hrs, route po; conditions: in vivo
[14] = Oral bioavailability in ICR mouse at 3 mg/kg and measured upto 24 hrs by LC-MS/MS analysis; assay type: ADME, organism-based; conditions: in vivo
[15] = Plasma concentration in Sprague-Dawley rat at 3 mg/kg,po and mesured after 1 hrs by LC-MS/MS analysis; assay type: ADME, organism-based
[16] = Plasma concentration in Sprague-Dawley rat at 3 mg/kg,po and mesured after 3 hrs by LC-MS/MS analysis; assay type: ADME, organism-based
[17] = Plasma concentration in Sprague-Dawley rat at 3 mg/kg,po and mesured after 6 hrs by LC-MS/MS analysis; assay type: ADME, organism-based

Structure (SMILES)	DC50 [1]	Emax [2]	further results
O=C1CCC(N2C(=O)c3cc4c(cc3C2=O)CN(CC(=O)N2CCC3(C2)CN(c2ccc([C@@H]5c6ccc(O)cc6CC[C@@H]5c5ccccc5)cc2)C3)C4)C(=O)N1 (stereo not given in full)	> 1000 nM	23%	
O=C1CCC(N2C(=O)c3cc4c(cc3C2=O)CN(CC(=O)N2CCCC3(CCN(c5ccc([C@@H]6c7ccc(O)cc7CC[C@@H]6c6ccccc6)cc5)CC3)C2)C4)C(=O)N1 (stereo not given in full)	393 nM	58%	
O=C1CCC(N2C(=O)c3cc4c(cc3C2=O)CN(C2CCN(C(=O)C3CCN(c5ccc([C@@H]6c7ccc(O)cc7CC[C@@H]6c6ccccc6)cc5)CC3)CC2)C4)C(=O)N1 (stereo not given in full)	1.6 nM	95%	Vd at 24 h [3]: 2 L/kg; clearance at 24 h [4]: 23.1 mL/min/kg; half-life at 24 h [5]: 2.7 h; AUC at 24 h [6]: 206 ng·h/mL; Cmax at 24 h (in vivo [7]): 40.6 ng/mL; bioavailability at 24 h (in vivo [8]): 10%
O=C1CCC(N2C(=O)c3cc4c(cc3C2=O)CN(CCC2CCN(c3ccc([C@@H]5c6ccc(O)cc6CC[C@@H]5c5ccccc5)cc3)CC2)C4)C(=O)N1 (stereo not given in full)	1000 nM	50%	
O=C1CCC(N2C(=O)c3cc4c(cc3C2=O)CN(CC2CN(CC3CCN(c5ccc([C@@H]6c7ccc(O)cc7CC[C@@H]6c6ccccc6)cc5)CC3)C2)C4)C(=O)N1 (stereo not given in full)	21 nM	59%	
C[C@@H]1Cc2c(ccc3[nH]ncc23)[C@@H](c2ccc(N3CCC4(CCN(C(=O)CN5Cc6cc7c(cc6C5)C(=O)N(C5CCC(=O)NC5=O)C7=O)CC4)CC3)cn2)N1CC(F)F (stereo not given in full)	14 nM	112%	
O=C1CCC(N2C(=O)c3cc4c(cc3C2=O)CN(CC(=O)N2CCC3(CC2)CN(c2ccc([C@@H]5c6ccc(O)cc6CC[C@@H]5c5ccccc5)cc2)C3)C4)C(=O)N1 (stereo not given in full)	1.8 nM	68%	
O=C1CCC(N2C(=O)c3cc4c(cc3C2=O)CN(C2CCN(CC3CN(c5ccc([C@@H]6c7ccc(O)cc7CC[C@@H]6c6ccccc6)cc5)C3)CC2)C4)C(=O)N1 (stereo not given in full)	295 nM	57%	
O=C1CCC(N2C(=O)c3cc4c(cc3C2=O)CN(CC(=O)N2CCC3(CC2)CCN(c2ccc([C@@H]5c6ccc(O)cc6CC[C@@H]5c5ccccc5)cc2)CC3)C4)C(=O)N1 (stereo not given in full)	5.5 nM	90%	Vd at 24 h [3]: 1.6 L/kg; clearance at 24 h [4]: 20 mL/min/kg; half-life at 24 h [5]: 2.5 h; AUC at 24 h [6]: 328 ng·h/mL; Vd [9]: 2.2 L/kg; clearance [10]: 31 mL/min/kg; half-life [11]: 3.1 h; Cmax [12]: 146 ng/mL; AUC at 24 h [13]: 550 ng·h/mL; bioavailability [14]: 35%; Cmax at 24 h (in vivo [7]): 69.5 ng/mL; bioavailability at 24 h (in vivo [8]): 13%
O=C1CCC(N2C(=O)c3cc4c(cc3C2=O)CN(CCCCC2CCN(c3ccc([C@@H]5c6ccc(O)cc6CC[C@@H]5c5ccccc5)cc3)CC2)C4)C(=O)N1 (stereo not given in full)	236 nM	67%	
O=C1CCC(N2C(=O)c3cc4c(cc3C2=O)CN(C2CN(CC3CCN(c5ccc([C@@H]6c7ccc(O)cc7CC[C@@H]6c6ccccc6)cc5)CC3)C2)C4)C(=O)N1 (stereo not given in full)	989 nM	50%	
O=C1CCC(N2C(=O)c3cc4c(cc3C2=O)CN(C2CCN(c3ccc([C@@H]5c6ccc(O)cc6CC[C@@H]5c5ccccc5)cc3)CC2)C4)C(=O)N1 (stereo not given in full)	> 1000 nM	32%	
O=C1CCC(N2C(=O)c3cc4c(cc3C2=O)CN(C(=O)C2CCN(CC3CCN(c5ccc([C@@H]6c7ccc(O)cc7CC[C@@H]6c6ccccc6)cc5)CC3)CC2)C4)C(=O)N1 (stereo not given in full)	9.7 nM	63%	
O=C1CCC(N2C(=O)c3cc4c(cc3C2=O)CN(CC2CCN(C(=O)C3CN(c5ccc([C@@H]6c7ccc(O)cc7CC[C@@H]6c6ccccc6)cc5)C3)CC2)C4)C(=O)N1 (stereo not given in full)	32 nM	87%	
O=C1CCC(N2C(=O)c3cc4c(cc3C2=O)CN(C2CCN(CC3CCN(c5ccc([C@@H]6c7ccc(O)cc7CC[C@@H]6c6ccccc6)cc5)CC3)CC2)C4)C(=O)N1 (stereo not given in full)	2.3 nM	84%	Vd at 24 h [3]: 8.8 L/kg; clearance at 24 h [4]: 25.7 mL/min/kg; half-life at 24 h [5]: 4 h; AUC at 24 h [6]: 552 ng·h/mL; Vd [9]: 16.2 L/kg; clearance [10]: 14.2 mL/min/kg; half-life [11]: 9.8 h; Cmax [12]: 93.3 ng/mL; AUC at 24 h [13]: 1480 ng·h/mL; bioavailability [14]: 58%; Cmax at 24 h (in vivo [7]): 54.6 ng/mL; bioavailability at 24 h (in vivo [8]): 30%
O=C1CCC(N2C(=O)c3cc4c(cc3C2=O)CN(CC2CCN(C(=O)C3CCN(c5ccc([C@@H]6c7ccc(O)cc7CC[C@@H]6c6ccccc6)cc5)CC3)CC2)C4)C(=O)N1 (stereo not given in full)	13 nM	76%	
O=C1CCC(N2C(=O)c3cc4c(cc3C2=O)CN(CC(=O)N2CC3(CCN(c5ccc([C@@H]6c7ccc(O)cc7CC[C@@H]6c6ccccc6)cc5)CC3)C2)C4)C(=O)N1 (stereo not given in full)	2.8 nM	71%	

Structure (SMILES)	DC50 [1]	Emax [2]	further results
C[C@@H]1Cc2c(ccc3[nH]ncc23)[C@@H](c2c(F)cc(N3CCC4(CCN(C(=O)CN5Cc6cc7c(cc6C5)C(=O)N(C5CCC(=O)NC5=O)C7=O)CC4)CC3)cc2F)N1CC(F)(F)F (stereo not given in full)	2 nM	88%	
COc1cc(N2CCC3(CCN(C(=O)CN4Cc5cc6c(cc5C4)C(=O)N(C4CCC(=O)NC4=O)C6=O)CC3)CC2)ccc1[C@@H]1c2ccc3[nH]ncc3c2C[C@@H](C)N1CC(F)F (stereo not given in full)	1.4 nM	82%	
O=C1CCC(N2C(=O)c3cc4c(cc3C2=O)CN(CC(=O)N2CC3(C2)CN(c2ccc([C@@H]5c6ccc(O)cc6CC[C@@H]5c5ccccc5)cc2)C3)C4)C(=O)N1 (stereo not given in full)	11 nM	65%	
O=C1CCC(N2C(=O)c3cc4c(cc3C2=O)CN(C(=O)CN2CCC3(CC2)CCN(c2ccc([C@@H]5c6ccc(O)cc6CC[C@@H]5c5ccccc5)cc2)CC3)C4)C(=O)N1 (stereo not given in full)	> 1000 nM	16%	
C[C@@H]1Cc2c(ccc3[nH]ncc23)[C@@H](c2ccc(N3CCC4(CCN(C(=O)CN5Cc6cc7c(cc6C5)C(=O)N(C5CCC(=O)NC5=O)C7=O)CC4)CC3)cn2)N1CC(F)(F)F (stereo not given in full)	3.8 nM	107%	Vd at 24 h [3]: 3.7 L/kg; clearance at 24 h [4]: 27 mL/min/kg; half-life at 24 h [5]: 2.3 h; AUC at 24 h [6]: 243 ng·h/mL; Cmax at 24 h (in vivo [7]): 51.8 ng/mL; bioavailability at 24 h (in vivo [8]): 14%
O=C1CCC(N2C(=O)c3cc4c(cc3C2=O)CN(CCCCCC2CCN(c3ccc([C@@H]5c6ccc(O)cc6CC[C@@H]5c5ccccc5)cc3)CC2)C4)C(=O)N1 (stereo not given in full)	31 nM	106%	
O=C1CCC(N2C(=O)c3cc4c(cc3C2=O)CN(CCCCCCC2CCN(c3ccc([C@@H]5c6ccc(O)cc6CC[C@@H]5c5ccccc5)cc3)CC2)C4)C(=O)N1 (stereo not given in full)	129 nM	101%	
O=C1CCC(N2C(=O)c3cc4c(cc3C2=O)CN(CC2CN(C(=O)C3CCN(c5ccc([C@@H]6c7ccc(O)cc7CC[C@@H]6c6ccccc6)cc5)CC3)C2)C4)C(=O)N1 (stereo not given in full)	6 nM	84%	
O=C1CCC(N2C(=O)c3cc4c(cc3C2=O)CN(CC2CCN(CC3CN(c5ccc([C@@H]6c7ccc(O)cc7CC[C@@H]6c6ccccc6)cc5)C3)CC2)C4)C(=O)N1 (stereo not given in full)	19 nM	64%	
O=C1CCC(N2C(=O)c3cc4c(cc3C2=O)CN(CCCC2CCN(c3ccc([C@@H]5c6ccc(O)cc6CC[C@@H]5c5ccccc5)cc3)CC2)C4)C(=O)N1 (stereo not given in full)	171 nM	79%	
C[C@@H]1Cc2c([nH]c3ccccc23)[C@@H](c2c(F)cc(N3CCC4(CCN(C(=O)CN5Cc6cc7c(cc6C5)C(=O)N(C5CCC(=O)NC5=O)C7=O)CC4)CC3)cc2F)N1CC(F)(F)CO (stereo not given in full)	0.1 nM	97%	concentration at 1 h [15]: 9.3 ng/mL; concentration at 3 h [16]: 6.6 ng/mL; concentration at 6 h [17]: 3 ng/mL
O=C1CCC(N2C(=O)c3cc4c(cc3C2=O)CN(C(=O)C2CCN(CC3CN(c5ccc([C@@H]6c7ccc(O)cc7CC[C@@H]6c6ccccc6)cc5)C3)CC2)C4)C(=O)N1 (stereo not given in full)	> 1000 nM	40%	
O=C1CCC(N2C(=O)c3cc4c(cc3C2=O)CN(CC(=O)N2CCC3(CCN(c5ccc([C@@H]6c7ccc(O)cc7CC[C@@H]6c6ccccc6)cc5)CC3)C2)C4)C(=O)N1 (stereo not given in full)	4.6 nM	75%	
O=C1CCC(N2C(=O)c3cc4c(cc3C2=O)CN(CC2CCN(c3ccc([C@@H]5c6ccc(O)cc6CC[C@@H]5c5ccccc5)cc3)CC2)C4)C(=O)N1 (stereo not given in full)	415 nM	65%	
O=C1CCC(N2C(=O)c3cc4c(cc3C2=O)CN(CC(=O)N2CC3(CCN(c5ccc([C@@H]6c7ccc(O)cc7CC[C@@H]6c6ccccc6)cc5)C3)C2)C4)C(=O)N1 (stereo not given in full)	4 nM	63%	
O=C1CCC(N2C(=O)c3cc4c(cc3C2=O)CN(CC(=O)N2CCC3(CC2)CCN(c2ccc([C@H]5c6ccc(O)cc6CC[C@H]5c5ccccc5)cc2)C3)C4)C(=O)N1 (single isomer, unassigned)	18 nM	58%	
